Source: paper PMC5635026, “Homo-PROTACs: bivalent small-molecule dimerizers of the VHL E3 ubiquitin ligase to induce self-degradation” (Nature Communications, 2017)

Columns and labels:
pVHL19 = pVHL19 (Homo sapiens, UniProt P40337); assay: Immunoblot of pVHL19 protein level in HeLa cells after compound treatment; format: cell-based; design: endogenous in cells; host or cells: HeLa; conditions: 1 µM, 10 h, DMSO = 100, Fig. 4a, read-out: pVHL19 band quantification normalized to 0.1% DMSO
Experimental: (§1) Cell culture. Human cell lines HeLa, U2OS and HEK 293, purchased from ATCC, were propagated in DMEM supplemented with 10% fetal bovine serum (FBS), L- glutamine, 100 μg ml^−1 of penicillin/streptomycin at 37 °C and 5% CO2. Cells were maintained for no more than 30 passages. All cell lines were routinely tested for mycoplasma contamination using MycoAlert kit from Lonza. For compound treatment experiments, cells were transferred in six-well plates with either 3 × 10^5 or 5 × 10^5 cells per well in 2 ml of media. At 80% confluence, cells were treated with compounds at the desired concentration, reaching final DMSO concentration of 0.1% v/v. Cells were incubated at 37 °C and 5% CO2 for the desired time before harvesting.
(§2) Immunoblotting. Cells were lysed in lysis buffer (20 mM Tris pH 8, 150 mM NaCl, 1% Triton × 100) and a protease inhibitor cocktail (Roche) per 10 ml buffer. For protein extracts, the dishes were placed on ice. The media was aspirated and the tissue layer washed twice with ice-cold phosphate buffer saline (PBS). Lysis buffer (120 μl) was added and the cells detached from the surface with a cell scraper. After removal of the insoluble fraction by centrifugation, the protein concentration of the supernatant was determined by Pierce™ Coomassie (Bradford) Protein Assay Kit. Protein extracts were fractionated by SDS-PAGE on 4–12% Tris-Acetate NuPage® Novex® (Life Technologies) polyacrylamide gels and transferred to a nitrocellulose membrane using wet transfer. The membrane was then blocked with 5 % w/v Bovine serum albumin (BSA) in Tris-buffered saline (TBS) with 0.1% w/v Tween-20. For detecting proteins the following primary antibodies in the given concentrations were used: anti-β-Actin (Cell Signaling Technology, 4970S, 13E5) 1:2000, anti-VHL (Cell Signaling Technology, #68547) 1:1000, anti-Hif-1α (BD Biosciences, 610959, clone 54) 1:1,000, anti-hydroxy-HIF-1α (Hyp564) (Cell Signaling Techonology; #3434) 1:1,000, anti-PHD2 (Bethyl Laboratories; A300-322A) 1:1,000, anti-PHD3 (Bethyl Laboratories; A300-327A) 1:1000, anti-CRBN (Proteintech; 11435-1-AP) 1:1,000. Following incubation with a horseradish peroxidase-conjugated secondary antibody (Cell Signaling Technology), the signal was developed using enhanced chemiluminescence (ECL) Western Blotting Detection Kit (Amersham) on Amersham Hyperfilm ECL film (Amersham). Band quantification was performed using ImageJ software and reported as relative amount as ratio of the each protein band relative to the lane’s loading control. The values obtained were then normalized to 0.1% DMSO vehicle control. See Supplementary Fig. 12 for full-scanned images of western-blots shown in the main text figures.

pVHL30 = pVHL30 (Homo sapiens, UniProt P40337); assay: Immunoblot of pVHL30 protein level in U2OS cells (time course); format: cell-based; design: endogenous in cells; conditions: for cellular efficacy at longer time points: after 36 h; for time of treatment to complete degradation of pVHL30: time course
Experimental: as §1, §2

V19CB = molecular target: T1, V19CB (Homo sapiens, UniProt P40337); assay: Size-exclusion chromatography (SEC) of complex formation with V19CB; format: binding; conditions: compound 30 µM; for shift of VCB peak / ternary complex formation in SEC: VCB 50 µM
T1 construct: made in house
Experimental: Protein expression and purification. Human proteins VHL (UniProt accession number: P40337), ElonginC (Q15369), and ElonginB (Q15370) were used for all protein expression. The short-isoform-containing VCB complex (V19CB) was expressed, purified and stored as described previously. For expression of the long-isoform-containing VCB complex (V30CB), N-terminally His6-tagged VHL (1–213), ElonginC (17–112) and ElonginB (1–104) were co-expressed in Escherichia coli BL21(DE3) at 20 °C for 18 h using 0.5 mM isopropyl β-D-1-thiogalactopyranoside (IPTG). E. coli cells were resuspended in binding buffer (50 mM HEPES, pH 8.0, 500 mM NaCl, 10 mM imidazole and 5 mM β-mercaptoethanol), lysed using a pressure cell homogenizer (Stansted Fluid Power), and lysate clarified by centrifugation. The supernatant was loaded onto a HisTrap FF affinity column (GE Healthcare) equilibrated with binding buffer, and bound protein was eluted using an imidazole gradient. The His6 tag was removed using thrombin protease (Sigma), and the untagged complex was dialyzed into binding buffer. V30CB was then loaded onto the HisTrap FF column a second time, allowing impurities to bind as the complex eluted without binding. The flow-through was dialyzed using a low-salt buffer (20 mM HEPES, pH 8.0, 25 mM NaCl and 1 mM DTT) and then loaded onto a Resource Q anion exchange column (GE Healthcare); bound protein was eluted across a linear NaCl gradient. V30CB was then additionally purified by size-exclusion chromatography using a Superdex-75 16/600 column (GE Healthcare) equilibrated with 20 mM HEPES, pH 7.5, 100 mM sodium chloride and 1 mM TCEP. All chromatography purification steps were performed using Äkta FPLC purification systems (GE Healthcare).
Size-exclusion chromatography (SEC). SEC experiments were carried out in a ÄKTA pure system (GE Healthcare) at room temperature. The oligomeric state of the VCB complex in solution was analyzed by gel filtration in a buffer containing 20 mM Bis-Tris (pH 7), 150 mM NaCl and 1 mM 1,4-dithiothreitol (DTT) using a Superdex 200 Increase 10/300 GL column (GE Healthcare) calibrated with globular proteins of known molecular weight (GE Healthcare, 28-4038-41/42). […] Sample volume for each injection was 200 µl, and the flow rate was 0.5 ml min^−1. Peak elution was monitored using ultraviolet absorbance at 280 nm.

T1 sequence (P40337 54-213): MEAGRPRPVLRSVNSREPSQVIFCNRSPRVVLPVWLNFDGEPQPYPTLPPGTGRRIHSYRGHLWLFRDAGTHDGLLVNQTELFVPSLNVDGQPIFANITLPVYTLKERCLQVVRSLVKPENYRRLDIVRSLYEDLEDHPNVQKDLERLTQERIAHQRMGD
T1 sequence (Q15369 17-112 partner limits assumed): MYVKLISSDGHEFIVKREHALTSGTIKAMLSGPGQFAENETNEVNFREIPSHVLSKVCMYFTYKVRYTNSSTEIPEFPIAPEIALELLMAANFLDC
T1 sequence (Q15370 1-104 partner limits assumed): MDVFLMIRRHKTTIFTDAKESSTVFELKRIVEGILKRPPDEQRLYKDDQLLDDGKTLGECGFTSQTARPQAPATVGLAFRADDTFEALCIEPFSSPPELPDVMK
pVHL19, sequence (P40337 54-213): as the sequence (P40337 54-213) above
pVHL19, sequence (Q15369 whole entry partner): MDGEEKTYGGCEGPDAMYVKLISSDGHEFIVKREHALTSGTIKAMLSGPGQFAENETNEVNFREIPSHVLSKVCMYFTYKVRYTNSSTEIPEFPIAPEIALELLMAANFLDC
pVHL19, sequence (Q15370 whole entry partner): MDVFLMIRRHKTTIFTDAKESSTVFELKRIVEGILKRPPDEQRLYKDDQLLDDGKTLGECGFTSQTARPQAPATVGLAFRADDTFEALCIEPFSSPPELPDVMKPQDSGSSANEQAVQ
pVHL30, sequence (P40337 whole entry): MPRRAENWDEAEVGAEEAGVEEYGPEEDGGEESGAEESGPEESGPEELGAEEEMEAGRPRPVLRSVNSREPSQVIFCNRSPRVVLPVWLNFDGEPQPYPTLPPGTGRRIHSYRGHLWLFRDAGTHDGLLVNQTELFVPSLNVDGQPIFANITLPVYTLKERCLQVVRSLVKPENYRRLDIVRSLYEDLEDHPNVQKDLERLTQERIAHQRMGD

Structure (SMILES)	remaining activity at 1 µM (pVHL19) [%]	cellular efficacy at longer time points (pVHL30)	time of treatment to complete degradation of pVHL30 (pVHL30) [h]	shift of VCB peak / ternary complex formation in SEC (V19CB)	molecular weight of species in shifted SEC peak (V19CB; V19CB 50 µM)
Cc1ncsc1-c1ccc(CNC(=O)[C@@H]2C[C@@H](O)CN2C(=O)[C@@H](NC(=O)COCCOCCOCCOCC(=O)N[C@H](C(=O)N2C[C@H](O)C[C@H]2C(=O)NCc2ccc(-c3scnc3C)cc2)C(C)(C)C)C(C)(C)C)cc1 [CM09, N ^1 ,N ^14-bis((S)-1-((2S,4R)-4-hydroxy-2-((4-(4-methylthiazol-5-yl)benzyl)carbamoyl)pyrrolidin-1-yl)-3,3-dimethyl-1-oxobutan-2-yl)-3,6,9,12-tetraoxatetradecanediamide]	102	lost its cellular efficacy	2	formation of a ternary complex eluting at identical retention volume when compared to CM11	
Cc1ncsc1-c1ccc(CNC(=O)[C@@H]2C[C@@H](O)CN2C(=O)[C@@H](NC(=O)COCCOCCOCCOCCOCC(=O)N[C@H](C(=O)N2C[C@H](O)C[C@H]2C(=O)NCc2ccc(-c3scnc3C)cc2)C(C)(C)C)C(C)(C)C)cc1 [CM10, N ^1 ,N ^17-bis((S)-1-((2S,4R)-4-hydroxy-2-((4-(4-methylthiazol-5-yl)benzyl)carbamoyl)pyrrolidin-1-yl)-3,3-dimethyl-1-oxobutan-2-yl)-3,6,9,12,15-pentaoxaheptadecanediamide]	92	retained their efficacy	2	formation of a ternary complex eluting at identical retention volume when compared to CM11	
Cc1ncsc1-c1ccc(CNC(=O)[C@@H]2C[C@@H](O)CN2C(=O)[C@@H](NC(=O)COCCOCCOCCOCCOCCOCC(=O)N[C@H](C(=O)N2C[C@H](O)C[C@H]2C(=O)NCc2ccc(-c3scnc3C)cc2)C(C)(C)C)C(C)(C)C)cc1 [CM11, N ^1 ,N ^20-bis((S)-1-((2S,4R)-4-hydroxy-2-((4-(4-methylthiazol-5-yl)benzyl)carbamoyl)pyrrolidin-1-yl)-3,3-dimethyl-1-oxobutan-2-yl)-3,6,9,12,15,18-hexaoxaicosanediamide]	91	retained their efficacy	1		~ 90 kDa
